Measurements: ChEMBL document CHEMBL5376002, “A Hybrid Antimicrobial Peptide Targeting Staphylococcus aureus with a Dual Function of Inhibiting Quorum Sensing Signaling and an Antibacterial Effect” (J Med Chem, 2023)
Converted amounts (≈) assume the structure as drawn. The source made the active and inactive calls. The calls are words filed in the database; no cut-off is given here. Bridge positions count the residues as written; N and C are the ends. Square brackets hold non-standard residues; d marks the D form. Peptide text beside a SMILES is read from it. Dab = NCC[C@H](N)C(=O)O

Experiments:
Staphylococcus aureus [1] = assay: Antibacterial activity against Staphylococcus aureus ATCC 6538p assessed as inhibition of bacterial growth incubated for 18 to 24 hrs; format: functional; conditions: time 18-24 hrs
Staphylococcus aureus [2] = assay: Antibacterial activity against Staphylococcus aureus ATCC 12600 assessed as inhibition of bacterial growth incubated for 18 to 24 hrs; format: functional; conditions: time 18-24 hrs
Staphylococcus aureus [3] = assay: Antibacterial activity against Staphylococcus aureus ATCC 43300 assessed as inhibition of bacterial growth incubated for 18 to 24 hrs; format: functional; conditions: time 18-24 hrs
[4] = system: Staphylococcus epidermidis; assay: Antibacterial activity against Staphylococcus epidermidis ATCC 12228 assessed as inhibition of bacterial growth incubated for 18 to 24 hrs; format: functional; conditions: time 18-24 hrs
Streptococcus pneumoniae [5] = assay: Antibacterial activity against Streptococcus pneumoniae ATCC 49619 assessed as inhibition of bacterial growth incubated for 18 to 24 hrs; format: functional; conditions: time 18-24 hrs
[6] = system: Staphylococcus saprophyticus; assay: Antibacterial activity against Staphylococcus saprophyticus ATCC BAA-750 assessed as inhibition of bacterial growth incubated for 18 to 24 hrs; format: functional; conditions: time 18-24 hrs
Streptococcus mutans [7] = assay: Antibacterial activity against Streptococcus mutans UA159 assessed as inhibition of bacterial growth incubated for 18 to 24 hrs; format: functional; conditions: time 18-24 hrs
Streptococcus mutans [8] = assay: Antibacterial activity against Streptococcus mutans ATCC 25175 assessed as inhibition of bacterial growth incubated for 18 to 24 hrs; format: functional; conditions: time 18-24 hrs
Escherichia coli = assay: Antibacterial activity against Escherichia coli ATCC 25922 assessed as inhibition of bacterial growth incubated for 18 to 24 hrs; format: functional; conditions: time 18-24 hrs
RAW264.7 [9] = assay: Cytotoxicity against mouse RAW264.7 cells assessed as cell viability incubated for 48 hrs by MTT assay; format: functional
RAW264.7 [10] = assay: Cytotoxicity against mouse RAW264.7 cells assessed as cell viability upto 125 uM incubated for 48 hrs by MTT assay; format: functional, cell-based
[11] = Binding affinity to AgrC-I extra-loop-I (unknown origin) assessed as dissociation constant incubated for 10 mins by isothermal titration calorimetry analysis
[12] = Binding affinity to AgrC-I extra-loop-II (unknown origin) assessed as dissociation constant incubated for 10 mins by isothermal titration calorimetry analysis
[13] = Binding affinity to AgrC-I extra-loop-III (unknown origin) assessed as dissociation constant incubated for 10 mins by isothermal titration calorimetry analysis
[14] = Binding affinity to AgrC-I extra-loop-I (unknown origin) assessed as change in enthalpy incubated for 10 mins by isothermal titration calorimetry analysis
[15] = Binding affinity to AgrC-I extra-loop-II (unknown origin) assessed as change in enthalpy incubated for 10 mins by isothermal titration calorimetry analysis
[16] = Binding affinity to AgrC-I extra-loop-III (unknown origin) assessed as change in enthalpy incubated for 10 mins by isothermal titration calorimetry analysis
Homo sapiens [17] = organism: Homo sapiens; assay: Binding affinity to AgrC-I extra-loop-I (unknown origin) assessed as gibbs free energy change incubated for 10 mins by isothermal titration calorimetry analysis
Homo sapiens [18] = organism: Homo sapiens; assay: Binding affinity to AgrC-I extra-loop-II (unknown origin) assessed as gibbs free energy change incubated for 10 mins by isothermal titration calorimetry analysis
Homo sapiens [19] = organism: Homo sapiens; assay: Binding affinity to AgrC-I extra-loop-III (unknown origin) assessed as gibbs free energy change incubated for 10 mins by isothermal titration calorimetry analysis
[20] = Inhibition of quorum sensing system in Staphylococcus aureus ATCC 6538p assessed as downregulation of RNAIII expression level incubated for 24 hrs by qRT-PCR analysis; conditions: dose 1-100 µM
[21] = Inhibition of quorum sensing system in Staphylococcus epidermidis ATCC 12228 assessed as downregulation of RNAIII expression level at 1 to 100 uM incubated for 24 hrs by qRT-PCR analysis; conditions: dose 1-100 µM
[22] = Inhibition of quorum sensing system in Staphylococcus saprophyticus ATCC BAA-750 assessed as downregulation of RNAIII expression level at 1 to 100 uM incubated for 24 hrs by qRT-PCR analysis; conditions: dose 1-100 µM
Staphylococcus aureus [23] = assay: Antivirulence activity against Staphylococcus aureus assessed as downregulation of RNAIII expression level at 1 to 100 uM incubated for 24 hrs by qRT-PCR analysis; format: functional, organism-based; conditions: dose 1-100 µM
Staphylococcus aureus [24] = assay: Antivirulence activity against Staphylococcus aureus assessed as downregulation of hla expression level at 1 to 100 uM incubated for 24 hrs by qRT-PCR analysis; format: functional, organism-based; conditions: dose 1-100 µM
Staphylococcus aureus [25] = assay: Antivirulence activity against Staphylococcus aureus assessed as downregulation of psm-alpha expression level at 1 to 100 uM incubated for 24 hrs by qRT-PCR analysis; format: functional, organism-based; conditions: dose 1-100 µM
Erythrocyte = assay: Hemolytic activity in rat RBC assessed as hemolysis measured after 20 hrs; format: toxicity, cell-based
Staphylococcus aureus [26] = assay: Antivirulence activity against Staphylococcus aureus ATCC 6538p assessed as downregulation of RNAIII expression level at 2.5 uM measured for 28 passages by qRT-PCR analysis; format: functional, organism-based
Staphylococcus aureus [27] = assay: Bactericidal activity against Staphylococcus aureus assessed as inhibition of bacterial growth at 31.25 uM incubated for 120 mins; format: functional, organism-based
Staphylococcus aureus [28] = assay: Inhibition of biofilm formation in Staphylococcus aureus at 0.78 to 1.56 uM incubated for 24 hrs by crystal violet staining based analysis; format: functional, organism-based; conditions: dose 0.78-1.56 µM
Staphylococcus aureus [29] = assay: Inhibition of biofilm formation in Staphylococcus aureus at 0.39 uM incubated for 24 hrs by crystal violet staining based analysis; format: functional, organism-based
Staphylococcus aureus [30] = assay: Inhibition of biofilm formation in Staphylococcus aureus incubated for 24 hrs by crystal violet staining based microscopic analysis; format: functional, organism-based
Staphylococcus aureus [31] = assay: Bactericidal activity against Staphylococcus aureus ATCC 6538p assessed as inhibition of bacterial growth incubated for 18 to 24 hrs; format: functional; conditions: time 18-24 hrs
Staphylococcus aureus [32] = assay: Bactericidal activity against Staphylococcus aureus ATCC 12600 assessed as inhibition of bacterial growth incubated for 18 to 24 hrs; format: functional; conditions: time 18-24 hrs
Staphylococcus aureus [33] = assay: Bactericidal activity against Staphylococcus aureus ATCC 43300 assessed as inhibition of bacterial growth incubated for 18 to 24 hrs; format: functional; conditions: time 18-24 hrs
[34] = system: Staphylococcus epidermidis; assay: Bactericidal activity against Staphylococcus epidermidis ATCC 12228 assessed as inhibition of bacterial growth incubated for 18 to 24 hrs; format: functional; conditions: time 18-24 hrs
Streptococcus pneumoniae [35] = assay: Bactericidal activity against Streptococcus pneumoniae ATCC 49619 assessed as inhibition of bacterial growth incubated for 18 to 24 hrs; format: functional; conditions: time 18-24 hrs
[36] = system: Staphylococcus saprophyticus; assay: Bactericidal activity against Staphylococcus saprophyticus ATCC BAA-750 assessed as inhibition of bacterial growth incubated for 18 to 24 hrs; format: functional; conditions: time 18-24 hrs
Cell membrane = assay: Induction of cell membrane damage in Staphylococcus aureus ATCC 6538p assessed as increase in nucleic acid leakage measured up to 30 mins by UV-spectrophotometer analysis; format: subcellular
[37] = Toxicity in Kunming mouse infected with Staphylococcus aureus ATCC 6538p assessed as animal survival rate 5 mg/kg, ip pre-infected with bacteria for 1 hr followed by compound administration and measured after 7 days; format: organism-based; conditions: in vivo, 168 h, time 7 day

Q: Which MIC (Staphylococcus aureus [1]) does the source give for `CC[C@H](C)[C@H](NC(C)=O)C(=O)N[C@@H](CC(N)=O)C(=O)N[C@H]1CCNC(=O)[C@H](CC(C)C)NC(=O)[C@H](CC(C)C)NC(=O)[C@H](Cc2ccccc2)NC(=O)[C@H](C)NC1=O` (Ac-IN[Dab]AFLL; lactam 3-C) here?
A: > 100 µM

Q: What about the MIC (Staphylococcus aureus [2]) of the same compound?
A: > 100 µM

Q: And the MIC (Staphylococcus aureus [3])?
A: > 100 µM

Q: What about the MIC [4] of the same compound?
A: > 100 µM

Q: What about the MIC (Streptococcus pneumoniae [5]) of the same compound?
A: > 100 µM

Q: And the MIC [6]?
A: > 100 µM

Q: And the MIC (Streptococcus mutans [7])?
A: > 100 µM

Q: What about the MIC (Streptococcus mutans [8]) of the same compound?
A: > 100 µM

Q: What about the MIC (Escherichia coli) of the same compound?
A: > 100 µM

Q: And the CC50 (RAW264.7 [9])?
A: > 125 µM

Q: And the Activity (RAW264.7 [10])?
A: inactive

Q: What about the Kd [11] of the same compound?
A: 1 pM

Q: And the Kd [12]?
A: 2320 µM

Q: And the Kd [13]?
A: 0.137 µM

Q: What about the deltaH [14] of the same compound?
A: -1.43 kcal/mol

Q: And the deltaH [15]?
A: -52.4 kcal/mol

Q: And the deltaH [16]?
A: 0.085 kcal/mol

Q: What about the deltaG (Homo sapiens [17]) of the same compound?
A: -16.4 kcal/mol

Q: What about the deltaG (Homo sapiens [18]) of the same compound?
A: -3.6 kcal/mol

Q: And the deltaG (Homo sapiens [19])?
A: -9.36 kcal/mol

Q: What about the inhibition [20] of the same compound?
A: Dose-Dependent Effect

Q: What about the inhibition [21] of the same compound?
A: inactive

Q: And the inhibition [22]?
A: inactive

Q: And the Activity (Staphylococcus aureus [23])?
A: Active

Q: And the Activity (Staphylococcus aureus [24])?
A: Active

Q: What about the Activity (Staphylococcus aureus [25]) of the same compound?
A: Active

Q: What about the Activity (Erythrocyte) of the same compound?
A: Toxic

Q: And the Activity (Staphylococcus aureus [26])?
A: Active

Q: And the Activity (Staphylococcus aureus [27])?
A: inactive

Q: What about the inhibition (Staphylococcus aureus [28]) of the same compound?
A: Active

Q: What about the inhibition (Staphylococcus aureus [29]) of the same compound?
A: Active

Q: And the inhibition (Staphylococcus aureus [30])?
A: Active

Q: Which MIC (Staphylococcus aureus [1]) does the source give for `CN[C@H](CC(C)C)C(=O)N[C@H]1C(=O)N[C@@H](CC(N)=O)C(=O)N[C@H]2C(=O)N[C@H]3C(=O)N[C@H](C(=O)N[C@H](C(=O)O)c4cc(O)cc(O)c4-c4cc3ccc4O)[C@H](O)c3ccc(c(Cl)c3)Oc3cc2cc(c3O[C@@H]2O[C@H](CO)[C@@H](O)[C@H](O)[C@H]2O[C@H]2C[C@](C)(N)[C@H](O)[C@H](C)O2)Oc2ccc(cc2Cl)[C@H]1O` [VANCOMYCIN] here?
A: 0.39 µM (≈ 0.565 µg/mL)

Q: What about the MBC (Staphylococcus aureus [31]) of the same compound?
A: 0.39 µM (≈ 0.565 µg/mL)

Q: What about the MIC (Staphylococcus aureus [2]) of the same compound?
A: 0.39 µM (≈ 0.565 µg/mL)

Q: What about the MBC (Staphylococcus aureus [32]) of the same compound?
A: 0.39 µM (≈ 0.565 µg/mL)

Q: And the MIC (Staphylococcus aureus [3])?
A: 0.39 µM (≈ 0.565 µg/mL)

Q: What about the MBC (Staphylococcus aureus [33]) of the same compound?
A: 0.39 µM (≈ 0.565 µg/mL)

Q: What about the MIC [4] of the same compound?
A: 0.39 µM (≈ 0.565 µg/mL)

Q: And the MBC [34]?
A: 0.39 µM (≈ 0.565 µg/mL)

Q: What about the MIC (Streptococcus pneumoniae [5]) of the same compound?
A: 0.19 µM (≈ 0.275 µg/mL)

Q: And the MBC (Streptococcus pneumoniae [35])?
A: 0.19 µM (≈ 0.275 µg/mL)

Q: And the MIC [6]?
A: 0.39 µM (≈ 0.565 µg/mL)

Q: And the MBC [36]?
A: 0.39 µM (≈ 0.565 µg/mL)

Q: What about the MIC (Streptococcus mutans [7]) of the same compound?
A: > 100 µM

Q: And the MIC (Streptococcus mutans [8])?
A: > 100 µM

Q: What about the MIC (Escherichia coli) of the same compound?
A: > 100 µM

Q: And the Activity (Cell membrane)?
A: inactive

Q: What about the Activity [37] of the same compound?
A: 90%
